From US20050042747A1, “Hivgp120-induced bob/gpr15 activation” (priority 2001, published 2005)

What was measured:
Type in all cases: cell-based, human
[1] = tested on: microtubules in HT-29 cells; assay: Microtubule staining (acetylated tubulin) in HT-29 cells; conditions: one hour after gp120 treatment
Experimental: To examine the microtubules, HT-29 cells were treated with 10 nM gp120CM235 or 50 pM gp120IIIB, then fixed one hour later in 4 g/100 ml paraformaldehyde PBS, then stained with mouse anti acetylated tubulin (5 μg/ml, Sigma) by a method similar to that given above. Some cells were pretreated with 50 μg/ml antiBob37 overnight, 1 μg/ml pertussis toxin overnight, or 4.6 μg/ml U73122 for one hour before the gp120 was added. Untreated cells were also stained.
Similarly treated undifferentiated HT-29 cells (except that Fluo-4 was not added) were fixed in paraformaldehyde phosphate buffered saline one hour after gp120 treatment.

[2] = tested on: peripheral blood mononuclear cells; assay: gp120-induced calcium flux in peripheral blood mononuclear cells
Experimental: Normal human peripheral blood mononuclear cells were isolated by Ficoll gradient centrifugation, and loaded with the calcium sensitive dye Fluo-4. HIV gp120IIIB induced strong calcium fluxes in the range of 7 nM to 50 pM, and there was a weaker signal at 5 pM.
Experiments corresponding to those with HT-29 cells were done with peripheral blood mononuclear cells. These were isolated from the blood of a healthy, HIV-uninfected person by a Ficoll-Hypaque techique (Histopaque, Sigma), then loaded with Fluo-4 by a technique nearly identical to that used for HT-29 cells, except that Hank's buffer was used rather than Locke's, and the cells were centrifuged (2,000 g for 10 minutes) just before calcium flux measurements to improve adherence. Gp120-induced calcium fluxes were documented with as little as 5 pM gp120IIIB.

[3] = tested on: HT-29 cells; assay: Calcium signaling in HT-29 cells (Fluo 4, confocal microscope)
Experimental: HT-29 cells (from ATCC) were grown in DMEM-F12 with 10% bovine calf serum, and were used 24-48 hours after plating. The Ghost (3) cells were obtained from the AIDS Research and Reference Reagent Program, and were grown DMEM with 10% bovine calf serum supplemented with 500 μg/ml G418, 100 μg/ml hygromycin, and 1 μg/ml puromycin.^27 These cells were used 24 to 96 hours after plating.
Calcium studies were done on HT-29 cells and Ghost (3) cells loaded with Fluo 4. The cells were placed in Locke's buffer containing 5 μg/ml Fluo 4 AM ester (Molecular Probes) for 20 to 30 minutes, then in Locke's buffer for an additional 30 minutes before testing. Various concentrations of gp120IIIB (X4 trophic), gp120CM235 (R5 trophic), gp120mN (X4 trophic), gp12093TH975 (nonsyncytium-inducing primary isolate from an asymptomatic subject, trophism undetermined but likely R5), and gp120SF2 (X4R5 trophic), ranging from 10 nM to less than 1 pM, were added in Locke's buffer.^6 The gp120 proteins were obtained from the AIDS Research Reagent Referral Program. Some HT-29 cells were given one of the following pretreatments: 50 μg/ml anti-Bob37 overnight, 1 μg/ml pertussis toxin overnight, or 4.6 μg/ml U73122 for one hour. With the HT-29 cells only, similar tests were also performed with SDF-1, MIP-1α, MIP-1β, and RANTES rather than gp120. The cells were visualized every 4 seconds in a confocal microscope, using 488 nm argon laser excitation and detection filters appropriate for fluorescein-like dyes.
For the first two or three days after plating, gp120 induces an immediate (within 4 seconds) calcium flux in undifferentiated HT-29 cells. The cells had previously been loaded with Fluo-4 AM ester (Molecular Probes, Eugene Oreg.) 5 micrograms/ml in the presence of Pleuronic F-127 0.02% in Locke's buffer for 30 minutes, then incubated at room temperature for an additional 30 minutes. Gp120IIIB was added while the cells were on an inverted confocal microscope using a 488 nm argon laser, with detection filters suitable for fluorescein-like dyes. […]

“gp120IIIB: HIV-1 envelope surface protein gp120 of strain IIIB (X4 trophic), from the AIDS Research Reagent Referral Program” was tested, and the “effect on acetylated tubulin-staining microtubules” value [1] was “marked loss of microtubules”, the “cells substantially brighter after treatment (increase in intracellular calcium)” value ([2]; 50 picomolar, 4 seconds after treatment, Fluo-4) was “Approximately 30%” and the “lowest gp120IIIB concentration giving calcium flux” value ([2]; freshly isolated cells) was 5 pM. The “calcium signaling in HT-29 cells, in words” value [3] was “induced an immediate calcium signal” and the “minimal concentration causing calcium signaling” value ([3]; undifferentiated HT-29 cells, serial dilution) was 1 pM.
